Results from patent publication US4087528A, “2,4-Diamino-5-benzylpyrimidines” (Abbott Laboratories, priority 1976, dated 1978).
Values after ≈ are worked out from the molar mass of the structure shown.

Columns and labels:
E. Coli 114 Sensitive = test: Two-fold tube dilution test vs. trimethoprim-sensitive E. coli (Table 4); format: cell-based; settings: Escherichia coli, minimal medium, 37° C., 18 hours, read-out: Minimum Inhibitory Concentration
Procedure: (§1) Compounds V - VIII were tested and compared with trimethoprim, as control, against two external strains, (Escherichia coli) a sensitive No. 114 and a No. 114 carrying a resistant (R) factor which mediates the synthesis of an altered dihydrofolate reductase; S. G. R. Amyes and J. T. Smith, Biochem. and Biophys., Res. Comm., 58, 412 (1974).
(§2) The method used was a two-fold tube dilution test in 5 ml. amounts of minimal medium. The inoculum was 0.1 ml. of a 1:1T dilution of a 24 hour broth culture. The test was incubated at 37° C. for 18 hours.

E. Coli (Resistant) = test: microbe, parasite or virus in culture; format: cell-based, Escherichia coli; settings: for MIC: Escherichia coli, 18 h, read-out: Minimum Inhibitory Concentration
Procedure: as §1, §2

[1] = system: Salmonella typhimurium Ed 9; test: Two-fold tube dilution test, minimal medium (Table 2); format: cell-based; settings: Salmonella enterica, 37° C., 18 hours, read-out: Minimum Inhibitory Concentration
Procedure: (§3) The four compounds, i.e., compounds V, VI, VII, VIII, were tested against a series of strains including:
(§4) Escherichia coli Juhl and Escherichia coli 3100. The method used was a two-fold tube dilution test in 5 ml. amounts of minimal medium. The inoculum was 0.1 ml. of a 1:1T dilution of a 24 hour broth culture. The test was incubated at 37° C. for 18 hours.

Escherichia coli 3100 = test: as above; format: cell-based; settings: 37° C., 18 hours, read-out: Minimum Inhibitory Concentration
Procedure: as §3, §4

[2] = system: Klebsiella pneumoniae 8045; test: as above; format: cell-based; settings: 37° C., 18 hours, read-out: Minimum Inhibitory Concentration
Procedure: as §3, §4

[3] = system: Enterobacter aerogenes 13048; test: as above; format: cell-based; settings: Klebsiella aerogenes, 37° C., 18 hours, read-out: Minimum Inhibitory Concentration
Procedure: as §3, §4

[4] = system: Proteus mirabilis Finland #9; test: as above; format: cell-based; settings: 37° C., 18 hours, read-out: Minimum Inhibitory Concentration
Procedure: as §3, §4

Escherichia coli Juhl = test: as above; format: cell-based; settings: 37° C., 18 hours, read-out: Minimum Inhibitory Concentration
Procedure: as §3, §4

E. Coli 3100 = test: In vitro potentiation of sulfonamides, two-fold tube dilution test in BBL Nutrient broth (Table 5); format: cell-based, Escherichia Coli; settings: MIC of sulfonamide alone vs in combination
Procedure: The potentiation properties of the compounds, i.e., compounds V - VIII in various combinations with sulfa compounds, i.e., sulfonamides (sulfamethoxazole, sulfadiazine, sulfamethazine and sulfamerazine) were tested. The method was a two-fold tube dilution test using BBL Nutrient broth in 5 ml. amounts. The inoculum was 0.1 ml. of a 10^-3 dilution 24 hour broth culture of Escherichia Coli 3100. The test was incubated at 37° C. for 18 hours. | *The potentiation effect shown is determined by measuring the minimum | inhibitory concentration (MIC) of the sulfonamide alone and in combinatio | with the compound at the indicated ratios.

E. Coli (Juhl) = test: Acute Mouse Protection Test (Table 6); format: in vivo, Female, Swiss albino mice; settings: approximate, combination with sulfamethoxazole, medicated 1 and 5 hours post-infection, 7 days
Procedure: (§5) The test bacteria were transferred to Brain Heart Infusion Broth and incubated at 37° C. for 18 hours. Log dilutions of the organism were made in BHI broth and mixed with 3% hog gastric mucin.
(§6) Female, Swiss albino mice, 18 - 20 grams, were injected intraperitoneally with 0.75 ml. of inoculum.
(§7) The optimum dilution was one in which each mouse received 10 - 10 LD50 's of the infecting organism.
(§8) The test compound was diluted in such a way that there were 5 drug levels (each level is half as concentrated as the one above) in each test. Ten infected mice were treated with each level of drug. The mice were medicated 1 and 5 hours post-infection.

P. Mirabilis = test: Acute Mouse Protection Test (Table 6); format: in vivo, Female, Swiss albino mice; settings: approximate, combination with sulfamethoxazole, medicated 1 and 5 hours post-infection, 7 days
Procedure: as §5, §6, §7, §8

[5] = system: Staphylococcus aureus Smith; test: Tube dilution test, Mueller Hinton Medium (Table 3); format: cell-based; settings: 18 h, read-out: Minimum Inhibitory Concentration
Procedure: as §4, with “hours. A similar test was made on other strains with the compounds (V, VI, VII and VIII) in 5 ml. amounts of Mueller Hinton Medium.” for “hours.”

[6] = system: Staphylococcus aureus 209P; test: as above; format: cell-based; settings: 18 h, read-out: Minimum Inhibitory Concentration
Procedure: as §4, with “hours. A similar test was made on other strains with the compounds (V, VI, VII and VIII) in 5 ml. amounts of Mueller Hinton Medium.” for “hours.”

[7] = system: Streptococcus pyogenes C203; test: as above; format: cell-based; settings: 18 h, read-out: Minimum Inhibitory Concentration
Procedure: as §4, with “hours. A similar test was made on other strains with the compounds (V, VI, VII and VIII) in 5 ml. amounts of Mueller Hinton Medium.” for “hours.”

P. Vulgaris = test: Acute Mouse Protection Test (Table 6); format: in vivo, Female, Swiss albino mice; settings: approximate, combination with sulfamethoxazole, medicated 1 and 5 hours post-infection, 7 days
Procedure: as §5, §6, §7, §8

E. Coli (48) = test: Acute Mouse Protection Test (Table 6); format: in vivo, Female, Swiss albino mice; settings: approximate, combination with sulfamethoxazole, medicated 1 and 5 hours post-infection, 7 days
Procedure: as §5, §6, §7, §8

[8] = Sulfadiazine, Compound/Sulfa Ratio 1:1
[9] = Sulfadiazine, Compound/Sulfa Ratio 1:5

Structure (SMILES)	MIC (E. Coli 114 Sensitive) [µg/mL]	MIC (E. Coli (Resistant)) [µg/mL]	MIC [1] [µg/mL]	MIC (Escherichia coli 3100) [µg/mL]	MIC [2] [µg/mL]	MIC [3] [µg/mL]	MIC [4] [µg/mL]	MIC (Escherichia coli Juhl) [µg/mL]	Potentiation (E. Coli 3100; [8]) [X]	Potentiation (E. Coli 3100; [9]) [X]	CD50, Cmpd. part of the Sulfa/Cmpd. combination (E. Coli (Juhl)) [Mg./Kg.]	CD50, Cmpd. part of the Sulfa/Cmpd. combination (P. Mirabilis) [Mg./Kg.]	MIC [5] [µg/mL]	MIC [6] [µg/mL]	MIC [7] [µg/mL]	CD50, Cmpd. part of the Sulfa/Cmpd. combination (P. Vulgaris) [Mg./Kg.]	CD50, Cmpd. part of the Sulfa/Cmpd. combination (E. Coli (48)) [Mg./Kg.]	further results
COc1cc(Cc2cnc(N)nc2N)cc(OC)c1OC [Trimethoprim, reference compound]	0.2 (≈ 0.689 µM)	3000 (≈ 10300 µM)																increase in resistance caused by the resistant (R) factor (E. Coli (Resistant); R factor in E. Coli 114 versus sensitive): several thousand-fold
Nc1ncc(Cc2cc(Cl)c(N)c(Cl)c2)c(N)n1 [V, 2,4-Diamino-5-(4-amino-3,5-dichlorobenzyl)pyrimidine]	1.56 (≈ 5.49 µM)	400 (≈ 1410 µM)	3.1 (≈ 10.9 µM)	0.39 (≈ 1.37 µM)	1.56 (≈ 5.49 µM)	1.56 (≈ 5.49 µM)	25 (≈ 88 µM)	0.78 (≈ 2.75 µM)	31.0	3.1	45	30	25 (≈ 88 µM)	6.2 (≈ 21.8 µM)	6.2 (≈ 21.8 µM)			
CNc1c(Cl)cc(Cc2cnc(N)nc2N)cc1Cl [VI, 2,4-Diamino-5-(3,5-dichloro-4-methylaminobenzyl)pyrimidine]	1.56 (≈ 5.23 µM)	> 400	3.1 (≈ 10.4 µM)	3.1 (≈ 10.4 µM)	6.2 (≈ 20.8 µM)	3.1 (≈ 10.4 µM)	12.5 (≈ 41.9 µM)	6.2 (≈ 20.8 µM)	15.9	3.1	30	60	6.2 (≈ 20.8 µM)	3.1 (≈ 10.4 µM)	6.2 (≈ 20.8 µM)	2	3	
CCNc1c(Cl)cc(Cc2cnc(N)nc2N)cc1Cl [VII, 2,4-Diamino-5-(3,5-dichloro-4-ethylaminobenzyl)pyrimidine]	3.1 (≈ 9.93 µM)	200 (≈ 641 µM)	12.5 (≈ 40 µM)	6.2 (≈ 19.9 µM)	12.5 (≈ 40 µM)	25 (≈ 80.1 µM)	50 (≈ 160 µM)	3.1 (≈ 9.93 µM)	8.0	6.2	35	30	6.2 (≈ 19.9 µM)	3.1 (≈ 9.93 µM)	12.5 (≈ 40 µM)	2	2	Potentiation (E. Coli 3100; Sulfamerazine, Compound/Sulfa Ratio 1:1): 8.0 X; Potentiation (E. Coli 3100; Sulfamerazine, Compound/Sulfa Ratio 1:5): 3.2 X; Potentiation (E. Coli 3100; Sulfamethazine, Compound/Sulfa Ratio 1:1): 4.0 X; Potentiation (E. Coli 3100; Sulfamethazine, Compound/Sulfa Ratio 1:5): 3.2 X; Potentiation (E. Coli 3100; Sulfamethoxazole, Compound/Sulfa Ratio 1:1): 4.0 X; Potentiation (E. Coli 3100; Sulfamethoxazole, Compound/Sulfa Ratio 1:5): 3.1 X
CN(C)c1c(Cl)cc(Cc2cnc(N)nc2N)cc1Cl [VIII, 2,4-Diamino-5-(3,5-dichloro-4-dimethylaminobenzyl)pyrimidine]	6.2 (≈ 19.9 µM)	100 (≈ 320 µM)	6.2 (≈ 19.9 µM)	6.2 (≈ 19.9 µM)	6.2 (≈ 19.9 µM)	3.1 (≈ 9.93 µM)	25 (≈ 80.1 µM)	6.2 (≈ 19.9 µM)	8.0	1.6	45	80	3.1 (≈ 9.93 µM)	1.56 (≈ 5 µM)	3.1 (≈ 9.93 µM)	2	3	
